From paper PMC6886403, “Structure-Based and Molecular Modeling Studies for the Discovery of Cyclic Imides as Reversible Cruzain Inhibitors With Potent Anti-Trypanosoma cruzi Activity” (Frontiers in Chemistry, 2019)

What was measured:
[1] = Cytotoxicity in HepG2 cells (MTS tetrazolium assay); type: cell-based; details: human, HepG2 hepatocytes, mean ± SD of two independent assays
Experimental: (§1) The cytotoxicities of the compounds against HFF-1 fibroblasts and HepG2 hepatocytes were evaluated using the MTS tetrazolium assay (Promega, Madison, WI) (Barltrop et al., [1991]). HFF-1 fibroblasts were seeded at 2 × 10^3/well in 96-well culture plates in RPMI 1640 without phenol red supplemented with 10% FCS and incubated overnight (37°C, 5% CO2). HepG2 hepatocytes were seeded at 6 × 10^3/well in 96-well culture plates in DMEM (Cultilab, Campinas SP) supplemented with 10% FCS and incubated overnight (37°C, 5% CO2). The compounds were added in 3-fold serial dilutions, and the plates were incubated at 37°C with 5% CO2. Each compound concentration was evaluated in triplicate. All plates included doxorubicin (Sigma-Aldrich, St. Louis, MO) as a positive control and untreated wells (100% growth) as a negative control. After 72 h, 20 μL of MTS was added, and the plates were incubated for 4 h. The absorbance was measured at 490 nm in an automated microplate reader, and the data were transferred to SigmaPlot 10.0 (Systat Software Inc., Erkrath, Germany) for IC50 value calculation. The percent of nonviable cells was determined and compared to the negative control wells (100% growth).

[2] = test system: T. cruzi intracellular amastigotes; assay: T. cruzi intracellular amastigote assay (Tulahuen lacZ strain, CPRG readout); type: cell-based, Trypanosoma cruzi; details: intracellular amastigotes; for IC50: Trypanosoma cruzi, Tulahuen strain in HFF-1 fibroblasts, 120 h, mean ± SD of two experiments, read-out: IC50 T. cruzi
Experimental: In vitro assays against T. cruzi were performed as described previously (Ferreira et al., [2014]). The T. cruzi Tulahuen strain, which expresses the E. coli β-galactosidase gene lacZ (Buckner et al., [1996]), was provided by Frederick S. Buckner (University of Washington, Seattle, WA). Stock solutions of the synthesized compounds were prepared in 100% DMSO. Epimastigotes were grown in liver infusion tryptone (LIT) supplemented with 10% fetal calf serum (FCS), penicillin and streptomycin (28°C). Metacyclogenesis from epimastigotes to trypomastigotes was induced by incubation of the epimastigotes in Grace's insect medium (Sigma-Aldrich, St. Louis, MO) supplemented with 10% FCS (28°C). HFF-1 human fibroblasts were seeded at 2 × 10^3/well (80 μL) in 96-well tissue culture plates in RPMI 1640 without phenol red supplemented with 10% FCS and incubated overnight (37°C, 5% CO2). Next, trypomastigotes were added at 1.0 × 10^4/well (20 μL), and the plates were incubated (37°C, 5% CO2). After 24 h, 3-fold serial dilutions (50 μL) of the synthesized compounds were added at concentrations ranging from 0.1 to 100 μM, and the plates were incubated (37°C, 5% CO2). Each compound concentration was evaluated in triplicate. All plates included BZ (Sigma-Aldrich) as a positive control and untreated wells (100% growth) as a negative control. After 120 h, 50 μL of chlorophenol red β-D-galactopyranoside (CPRG, Sigma-Aldrich) and IGEPAL CA-630 (Sigma-Aldrich) (0.1%) was added to each well. The absorbance was measured at 570 nm in an automated microplate reader, and the data were transferred to SigmaPlot 10.0 (Systat Software Inc.) for IC50 value calculation.

[3] = Cytotoxicity in HFF-1 cells (MTS tetrazolium assay); type: cell-based; details: human, HFF-1 fibroblasts, mean ± SD of two independent assays
Experimental: as §1

cruzain = target: T1, cruzain (Trypanosoma cruzi, UniProt P25779); assay: Cruzain inhibition assay (cleavage of fluorogenic substrate Z-Phe-Arg-AMC); type: biochemical; details: for inhibition at 100 µM: at 100 μM inhibitor, mean of three measurements, read-out: Percent inhibition against cruzain; for IC50: mean ± SD of three individual experiments, at least six inhibitor concentrations in triplicate, 1.5 nM cruzain, 5.0 μM Z-Phe-Arg-AMC, pH 5.5; for decrease in potency against cruzain relative to 3a: less active than 3a
T1 construct: inferred from Ni-NTA purification of the pro-enzyme; made in house; host or cells: Escherichia coli (M15)
Experimental: The catalytic activity of cruzain was monitored by cleavage of the fluorogenic substrate Z-Phe-Arg-aminomethyl coumarin (Z-Phe-Arg-AMC) as previously described (Ferreira et al., [2014]). The enzyme kinetics assays were performed in 0.1 M sodium acetate buffer (pH 5.5) with 5 mM dithiothreitol (DTT) and 0.01% Triton X-100. […] The enzyme reaction was monitored for 5 min at 30°C in 96-well black flat bottom plates, and the activity was calculated based on the initial rates compared with a control (DMSO). Wavelengths of 355 nm for excitation and 460 nm for emission were used. IC50 values were independently determined by determining rate measurements for at least six inhibitor concentrations, each evaluated in triplicate. To determine the mechanism of inhibition, eight substrate concentrations and four inhibitor concentrations were used, each in triplicate. The mechanism of inhibition was determined by Lineweaver-Burk plots. SigmaPlot 10.0 (Systat Software Inc., Erkrath, Germany) was used to determine the IC50 values.

T1 sequence (P25779 123-337 limits assumed): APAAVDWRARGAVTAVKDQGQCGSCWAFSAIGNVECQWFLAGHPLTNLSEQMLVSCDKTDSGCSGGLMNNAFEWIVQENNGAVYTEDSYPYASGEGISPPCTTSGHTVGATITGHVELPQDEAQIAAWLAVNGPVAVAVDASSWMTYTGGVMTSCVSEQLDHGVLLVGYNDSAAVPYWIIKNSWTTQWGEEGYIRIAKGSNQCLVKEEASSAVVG

COc1ccc(NC(=O)COC(=O)[C@H](CC(C)C)N2C(=O)C=C(C)C2=O)cc1Cl [10e, 2-((3-chloro-4-methoxyphenyl)amino)-2-oxoethyl (S)-4-methyl-2-(3-methyl-2,5-dioxo-2,5-dihydro-1H-pyrrol-1-yl)pentanoate]
CC50 at 72 h [1]: 5 ± 1 µM | IC50 [2]: 1.2 ± 0.3 µM | CC50 at 72 h [3]: 4.8 ± 0.5 µM | inhibition at 100 µM (cruzain): 94% | IC50 (cruzain): 2.5 ± 0.6 µM

COc1ccc(NC(=O)COC(=O)C(Cc2ccccc2)N2C(=O)C3CC=CCC3C2=O)cc1Cl (stereo not shown) [10hrac, 2-((3-chloro-4-methoxyphenyl)amino)-2-oxoethyl 2-(1,3-dioxo-1,3,3a,4,7,7a-hexahydro-2H-isoindol-2-yl)-3-phenylpropanoate]
IC50 (cruzain): 1.16 µM

COc1ccc(NC(=O)COC(=O)CN2C(=O)C3CC=CCC3C2=O)cc1Cl (stereo not shown) [10g, 2-((3-chloro-4-methoxyphenyl)amino)-2-oxoethyl 2-(1,3-dioxo-1,3,3a,4,7,7a-hexahydro-2H-isoindol-2-yl)acetate]
activity against cruzain (in words) (cruzain): inactive | inhibition at 100 µM (cruzain): 0%

COc1ccc(NC(=O)COC(=O)[C@@H](Cc2ccc3ccccc3c2)N2C(=O)C3CC=CCC3C2=O)cc1Cl (stereo partly drawn) [10i, 2-((3-chloro-4-methoxyphenyl)amino)-2-oxoethyl (2R)-2-(1,3-dioxo-1,3,3a,4,7,7a-hexahydro-2H-isoindol-2-yl)-3-(naphthalen-2-yl)propanoate]
inhibition at 100 µM (cruzain): 58%

CC(C)C[C@@H](C(=O)OCC(=O)Nc1ccc(F)cc1)N1C(=O)C2CC=CCC2C1=O (stereo partly drawn) [3e, 2-((4-fluorophenyl)amino)-2-oxoethyl (2S)-2-(1,3-dioxo-1,3,3a,4,7,7a-hexahydro-2H-isoindol-2-yl)-4-methylpentanoate]
IC50 [2]: > 100 µM | inhibition at 100 µM (cruzain): 74% | IC50 (cruzain): 20.5 ± 1.3 µM

CC(C)C[C@@H](C(=O)OCC(=O)Nc1cccc(Cl)c1)N1C(=O)C2CC=CCC2C1=O (stereo partly drawn) [3c, 2-((3-chlorophenyl)amino)-2-oxoethyl (2S)-2-(1,3-dioxo-1,3,3a,4,7,7a-hexahydro-2H-isoindol-2-yl)-4-methylpentanoate]
inhibition at 100 µM (cruzain): 67% | IC50 (cruzain): 40.1 µM

CC(C)C[C@@H](C(=O)OCC(=O)Nc1ccccc1)N1C(=O)C2CC=CCC2C1=O (stereo partly drawn) [3d, 2-oxo-2-(phenylamino)ethyl (2S)-2-(1,3-dioxo-1,3,3a,4,7,7a-hexahydro-2H-isoindol-2-yl)-4-methylpentanoate]
IC50 [2]: > 100 µM | inhibition at 100 µM (cruzain): 76% | decrease in potency against cruzain relative to 3a (cruzain): 8 fold | IC50 (cruzain): 16.7 ± 1.3 µM

COc1ccc(NC(=O)COC(=O)[C@H](CC(C)C)N2C(=O)c3ccccc3C2=O)cc1Cl [10a, 2-((3-chloro-4-methoxyphenyl)amino)-2-oxoethyl (S)-2-(1,3-dioxoisoindolin-2-yl)-4-methylpentanoate]
inhibition at 100 µM (cruzain): 39%

COc1cccc2c1C(=O)c1c(O)c3c(c(O)c1C2=O)C[C@@](O)(C(=O)CO)C[C@@H]3O[C@H]1C[C@H](N)[C@H](O)[C@H](C)O1 [Doxorubicin, doxorubicin, reference compound]
CC50 at 72 h [1]: 0.4 ± 0.1 µM | CC50 at 72 h [3]: 0.21 ± 0.09 µM

COc1ccc(NC(=O)CNC(=O)C(CC(C)C)N2C(=O)C3CC=CCC3C2=O)cc1Cl (stereo not shown) [compound 5, N-(2-((3-chloro-4-methoxyphenyl)amino)-2-oxoethyl)-2-(1,3-dioxo-1,3,3a,4,7,7a-hexahydro-2H-isoindol-2-yl)-4-methylpentanamide]
inhibition at 100 µM (cruzain): 38%

CC(C)C[C@@H](C(=O)OCC(=O)Nc1ccc(O)cc1)N1C(=O)C2CC=CCC2C1=O (stereo partly drawn) [3h, 2-((4-hydroxyphenyl)amino)-2-oxoethyl (2S)-2-(1,3-dioxo-1,3,3a,4,7,7a-hexahydro-2H-isoindol-2-yl)-4-methylpentanoate]
inhibition at 100 µM (cruzain): 6%

COc1ccc(NC(=O)COC(=O)[C@H](Cc2ccccc2)N2C(=O)C3CC=CCC3C2=O)cc1Cl (stereo partly drawn) [10h, 2-((3-chloro-4-methoxyphenyl)amino)-2-oxoethyl (2S)-2-(1,3-dioxo-1,3,3a,4,7,7a-hexahydro-2H-isoindol-2-yl)-3-phenylpropanoate]
IC50 [2]: > 100 µM | activity against T. cruzi (in words) [2]: inactive | activity against cruzain (in words) (cruzain): active | mechanism of inhibition (cruzain; Lineweaver-Burk plots, eight substrate and four inhibitor concentrations): competitive | inhibition at 100 µM (cruzain): 96% | IC50 (cruzain): 1.4 ± 0.8 µM | increase in potency against cruzain relative to 3a (cruzain; more active than 3a): 2 fold

CC(C)C[C@@H](C(=O)OCC(=O)Nc1ccc(Cl)cc1)N1C(=O)C2CC=CCC2C1=O (stereo partly drawn) [3g, 2-((4-chlorophenyl)amino)-2-oxoethyl (2S)-2-(1,3-dioxo-1,3,3a,4,7,7a-hexahydro-2H-isoindol-2-yl)-4-methylpentanoate]
inhibition at 100 µM (cruzain): 56%

CC(C)C[C@@H](C(=O)OCC(=O)Nc1ccc(F)c([N+](=O)[O-])c1)N1C(=O)C2CC=CCC2C1=O (stereo partly drawn) [3j, 2-((4-fluoro-3-nitrophenyl)amino)-2-oxoethyl (2S)-2-(1,3-dioxo-1,3,3a,4,7,7a-hexahydro-2H-isoindol-2-yl)-4-methylpentanoate]
inhibition at 100 µM (cruzain): 56%

COc1ccc(NC(=O)COC(=O)[C@H](CC(C)C)N2C(=O)C3CC=CCC3C2=O)cc1 (stereo partly drawn) [3b, 2-((4-methoxyphenyl)amino)-2-oxoethyl (2S)-2-(1,3-dioxo-1,3,3a,4,7,7a-hexahydro-2H-isoindol-2-yl)-4-methylpentanoate]
inhibition at 100 µM (cruzain): 86% | IC50 (cruzain): 13.9 µM

COc1ccc(NC(=O)COC(=O)C(CC(C)C)N2C(=O)C3CC=CCC3C2=O)c([N+](=O)[O-])c1 (stereo not shown) [3m]
inhibition at 100 µM (cruzain): 53%

COc1ccc(NC(=O)COC(=O)[C@H](CC(C)C)N2C(=O)C3CCCCC3C2=O)cc1Cl (stereo partly drawn) [10b, 2-((3-chloro-4-methoxyphenyl)amino)-2-oxoethyl (2S)-2-(1,3-dioxooctahydro-2H-isoindol-2-yl)-4-methylpentanoate]
IC50 [2]: > 100 µM | inhibition at 100 µM (cruzain): 75% | decrease in potency against cruzain relative to 3a (cruzain): 2 fold | IC50 (cruzain): 4.2 ± 1.5 µM

COc1ccc(NC(=O)COC(=O)[C@H](CC(C)C)N2CCCC2)cc1Cl [10k, 2-((3-chloro-4-methoxyphenyl)amino)-2-oxoethyl (S)-4-methyl-2-(pyrrolidin-1-yl)pentanoate]
IC50 [2]: > 100 µM | activity against T. cruzi (in words) [2]: inactive | activity against cruzain (in words) (cruzain): inactive | inhibition at 100 µM (cruzain): 6%

CC(C)C[C@@H](C(=O)OCC(=O)Nc1ccc(Br)cc1)N1C(=O)C2CC=CCC2C1=O (stereo partly drawn) [3f, 2-((4-bromophenyl)amino)-2-oxoethyl (2S)-2-(1,3-dioxo-1,3,3a,4,7,7a-hexahydro-2H-isoindol-2-yl)-4-methylpentanoate]
inhibition at 100 µM (cruzain): 53%

COc1ccc(NC(=O)COC(=O)[C@H](CC(C)C)N2C(=O)C3CC=CCC3C2=O)cc1Cl (stereo partly drawn) [3a, 2-((3-chloro-4-methoxyphenyl)amino)-2-oxoethyl (2S)-2-(1,3-dioxo-1,3,3a,4,7,7a-hexahydro-2H-isoindol-2-yl)-4-methylpentanoate]
IC50 [2]: > 100 µM | activity against T. cruzi (in words) [2]: not active | inhibition at 100 µM (cruzain): 88% | IC50 (cruzain): 2.2 ± 0.4 µM

CC(C)CC(C(=O)OCC(=O)Nc1ccc([N+](=O)[O-])cc1)N1C(=O)C2CC=CCC2C1=O (stereo not shown) [3l]
inhibition at 100 µM (cruzain): 67%
